Experimental findings from US11504368B2, “2,6-diamino-3,4-dihydropyrimidin-4-one derivatives and use thereof in therapy” (THOMAS HELLEDAYS STIFTELSE FÖR MEDICINSK FORSKNING, priority 2018, dated 2022) are described below.

For one assay, the system named is HL-60 cells. Put plainly: Cancer cell viability assay (HL-60, resazurin). It is filed as cell-based. As to conditions: Homo sapiens, 96 h, mean of at least 3 independent measurements, read-out: HL60 cell proliferation inhibition EC50. How it is done:
HL-60 cells (human promyelocytic leukemia cells) were seeded in a 384-well plate at a density of 2,000 cells per well in 50 μL induction medium and treated with vehicle (DMSO) or an 11-point concentration range with 3-fold dilution in concentration of compound. Each assay point was run in duplicate. Wells without cells but with DMSO were used as negative controls. The cells were left to proliferate over a period of 96 h, in an incubator at 37° C. and 5% CO2, followed by an addition of 10 μL […] resazurin sodium salt (199303, Sigma-Aldrich) dissolved in DPBS (14190, Gibco). After 4 h of incubation at 37° C. and 5% CO2, the fluorescent signal was measured using an excitation wavelength of 544 nm and an emission wavelength of 595 nm in a Hidex Sense plate reader. Cell plates were incubated in boxes with damp paper tissues to avoid evaporation. All additions, except compound and DMSO, were done using the Multidrop Combi (Thermo Fisher Scientific). DMSO and compounds were pre-dispensed with an Echo 550 Liquid handler (Labcyte) in black, clear bottom, TC-treated and sterile 384-well plates (3764, Corning). Growth medium consisted of RPMI 1640 GlutaMAX (61870, Gibco), 10% (v/v) FBS (10500, Gibco), and 1% (v/v) P/S (15070, Gibco). Induction medium consisted of RPMI 1640 GlutaMAX (61870, Gibco), 5% (v/v) FBS (10500, Gibco), and 1% (v/v) P/S (15070, Gibco). EC50 values were determined by fitting a four parameter sigmoidal curve model using XLfit (IDBS). Reported EC50 values are the mean of at least 3 independent measurements.

A further assay addresses MTHFD2 (Homo sapiens (Human), UniProt P13995). Briefly: Inhibition of MTHFD2 (NAD(P)H-Glo luminescence). Type of assay: biochemical. The note with it: 3.4 nmol/L MTHFD2, 5 μmol/L folitixorin, 250 μmol/L NAD+; mean of at least 3 independent measurements. How it is done:
DMSO was used as negative control. The serial dilution in DMSO, from compound DMSO stock solution, was created by dispensing from a 384-well low dead volume microplate (LP-0200, Labcyte) and a 384-well polypropylene microplate 2.0 (PP-0200, Labcyte). A total of 2.5 μL MTHFD2 was preincubated with compound or DMSO for 10 min. The enzymatic reaction was initiated by adding 2.5 μL folitixorin (F680350, Toronto Research Chemicals). For background control, 5 μL buffer was added to the well. […] The final concentrations of all reagents in a total assay volume of 5 μL per well were 50 mmol/L Tris-HCl at pH 8.0, 100 mmol/L NaCl, 5 mmol/L MgCl2, 25 mmol/L Na3PO4 at pH 8.0, 0.005% (v/v) Tween-20, and 2 mmol/L 2-mercaptoethanol. After 15 min reaction time, 5 μL NAD(P)H-Glo detection reagent (G9061 or G9062, Promega) was dispensed in all wells and the plate was incubated for 60 min. Luminescence was measured on a plate reader (Envision, PerkinElmer or Sense, Hidex). The light signal produced is proportional to the amount of NAD(P)H in the sample. IC50 values were determined by fitting a four parameter sigmoidal curve model using XLfit (IDBS). Reported IC50 values are the mean of at least 3 independent measurements.

Sequence of MTHFD2 (P13995 36-350): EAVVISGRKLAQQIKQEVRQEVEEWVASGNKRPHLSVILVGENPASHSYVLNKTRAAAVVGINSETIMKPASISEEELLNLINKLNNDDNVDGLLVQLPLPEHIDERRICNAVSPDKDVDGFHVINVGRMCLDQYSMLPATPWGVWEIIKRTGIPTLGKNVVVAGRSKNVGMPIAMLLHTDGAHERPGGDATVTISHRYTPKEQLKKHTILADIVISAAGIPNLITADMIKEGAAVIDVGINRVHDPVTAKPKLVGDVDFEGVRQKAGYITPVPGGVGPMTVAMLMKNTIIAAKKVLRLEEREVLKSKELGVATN

In the case of `Nc1nc(N)c(CC(=O)Nc2ccc(C(=O)N[C@@H](CCc3nnn[nH]3)C(=O)O)nc2)c(=O)[nH]1` [Example 9, (2S)-2-((5-[2-(2,4-diamino-6-oxo-1,6-dihydropyrimidin-5-yl)acetamido]pyridin-2-yl)formamido)-4-(1H-1,2,3,4-tetrazol-5-yl)butanoic acid], in the assay on HL-60 cells, the EC50 was determined as 35 nM. Moreover, the IC50 on MTHFD2 came to 53 nM.

Regarding `Nc1nc(N)c(CC(=O)Nc2cnc(C(=O)N[C@@H](CCC(=O)O)C(=O)O)c(C(F)(F)F)c2)c(=O)[nH]1` [Example 30, (2S)-2-((5-[2-(2,4-diamino-6-oxo-1,6-dihydropyrimidin-5-yl)acetamido]-3-(trifluoromethyl)pyridin-2-yl)formamido)pentanedioic acid], in the assay on HL-60 cells, the EC50 stood at 161 nM. The compound further registered an IC50 at MTHFD2 of 1100 nM.

For `Nc1nc(N)c(NC(=O)Nc2ccc(C(=O)N[C@H](C(=O)O)c3ccccc3)nc2)c(=O)[nH]1` [Example 15, (2S)-2-[(5-{[(2,4-diamino-6-oxo-1,6-dihydropyrimidin-5-yl)carbamoyl]amino}pyridin-2-yl)formamido]-2-phenylacetic acid], the EC50 in the assay on HL-60 cells amounted to 470 nM. In addition, it took 23 nM to reach half-maximal inhibition on MTHFD2 (IC50).

With `Nc1nc(N)c(NC(=O)Nc2ccc(C(=O)N[C@@H](Cc3ccccc3)C(=O)O)nc2)c(=O)[nH]1` [Example 2, (2S)-2-[(5-{[(2,4-diamino-6-oxo-1,6-dihydropyrimidin-5-yl)carbamoyl]amino}pyridin-2-yl)formamido]-3-phenylpropanoic acid; trifluoroacetic acid], the EC50 with HL-60 cells was 10 nM. Also, half-maximal inhibition against MTHFD2 (IC50) required 68 nM.

Turning to `CC(C)[C@H](NC(=O)c1ncc(NC(=O)Cc2c(N)nc(N)[nH]c2=O)cc1F)C(=O)O` [Example 34, (2S)-2-((5-[2-(2,4-diamino-6-oxo-1,6-dihydropyrimidin-5-yl)acetamido]-3-fluoropyridin-2-yl)formamido)-3-methylbutanoic acid], the EC50 with HL-60 cells amounted to 177 nM. The compound further showed an IC50 on MTHFD2 of 60 nM.

Consider `Nc1nc(N)c(NC(=O)Nc2ccc(C(=O)N[C@@H](CC3CCCC3)C(=O)O)nc2)c(=O)[nH]1` [Example 11, (2S)-3-cyclopentyl-2-[(5-{[(2,4-diamino-6-oxo-1,6-dihydropyrimidin-5-yl)carbamoyl]amino}pyridin-2-yl)formamido]propanoic acid], for which the EC50 in the assay with HL-60 cells amounted to 37 nM. Half-maximal inhibition against MTHFD2 (IC50) required 46 nM.

On to `Nc1nc(N)c(NC(=O)Nc2ccc(C(=O)N[C@@H](CCC(=O)NS(=O)(=O)c3ccccc3)C(=O)O)nc2)c(=O)[nH]1` [Example 16, (2S)-4-[(benzenesulfonyl)carbamoyl]-2-[(5-{[(2,4-diamino-6-oxo-1,6-dihydropyrimidin-5-yl)carbamoyl]amino}pyridin-2-yl)formamido]butanoic acid], for which the EC50 in the assay on HL-60 cells turned out to be 197 nM. At MTHFD2, this compound returned an IC50 of 11 nM.

`COc1nc(C(=O)N[C@@H](CCC(=O)O)C(=O)O)ccc1NC(=O)Cc1c(N)nc(N)[nH]c1=O` [Example 29, (2S)-2-({5-[2-(2,4-diamino-6-oxo-1,6-dihydropyrimidin-5-yl)acetamido]-6-methoxypyridin-2-yl}formamido)pentanedioic acid]: in the assay on HL-60 cells, the EC50 was found to be 1120 nM. The compound also returned an IC50 on MTHFD2 of 44 nM.

For `Nc1nc(N)c(NC(=O)Nc2cnc(C(=O)N[C@@H](Cc3ccccc3)C(=O)O)c(F)c2)c(=O)[nH]1` [Example 35, (2S)-2-[(5-{[(2,4-diamino-6-oxo-1,6-dihydropyrimidin-5-yl)carbamoyl]amino}-3-fluoropyridin-2-yl)formamido]-3-phenylpropanoic acid], the EC50 in the assay on HL-60 cells turned out to be 20 nM. For the same compound, on MTHFD2, inhibition was half-maximal at 5 nM (IC50).

For the compound `Nc1nc(N)c(NC(=O)Nc2ccc(C(=O)N[C@@H](CCc3ccccc3)C(=O)O)nc2)c(=O)[nH]1` [Example 14, (2S)-2-[(5-{[(2,4-diamino-6-oxo-1,6-dihydropyrimidin-5-yl)carbamoyl]amino}pyridin-2-yl)formamido]-4-phenylbutanoic acid], the EC50 with HL-60 cells is 187 nM.

As to `CC(C)[C@H](NC(=O)c1ncc(NC(=O)Nc2c(N)nc(N)[nH]c2=O)cc1F)C(=O)O` [Example 31, (2S)-2-[(5-{[(2,4-diamino-6-oxo-1,6-dihydropyrimidin-5-yl)carbamoyl]amino}-3-fluoropyridin-2-yl)formamido]-3-methylbutanoic acid], in the assay on HL-60 cells, the EC50 came out at 20 nM. The compound further displayed an IC50 against MTHFD2 of 8 nM.

With `Nc1nc(N)c(CC(=O)Nc2cnc(C(=O)N[C@@H](CCC(=O)O)C(=O)O)c(Cl)c2)c(=O)[nH]1` [Example 19, (2S)-2-((3-chloro-5-[2-(2,4-diamino-6-oxo-1,6-dihydropyrimidin-5-yl)acetamido]pyridin-2-yl)formamido)pentanedioic acid], the EC50 in the assay with HL-60 cells was found to be 8 nM. The compound also yielded an IC50 on MTHFD2 of 72 nM.

Consider `Nc1nc(N)c(NC(=O)Nc2ccc(C(=O)N[C@@H](CCC(=O)O)C(=O)O)nc2)c(=O)[nH]1` [Example 1, (2S)-2-[(5-{[(2,4-diamino-6-oxo-1,6-dihydropyrimidin-5-yl)carbamoyl]amino}pyridin-2-yl)formamido]pentanedioic acid; trifluoroacetic acid], for which, in the assay with HL-60 cells, the EC50 was determined as 75 nM. For the same compound, half-maximal inhibition at MTHFD2 (IC50) was put at 24 nM.

With `Nc1nc(N)c(CC(=O)Nc2cnc(C(=O)N[C@@H](CCC(=O)O)C(=O)O)c(F)c2)c(=O)[nH]1` [Example 10, (2S)-2-((5-[2-(2,4-diamino-6-oxo-1,6-dihydropyrimidin-5-yl)acetamido]-3-fluoropyridin-2-yl)formamido)pentanedioic acid], in the assay on HL-60 cells, the EC50 is 14 nM.

In the case of `C=Cc1nc(C(=O)N[C@@H](CCC(=O)O)C(=O)O)ccc1NC(=O)Cc1c(N)nc(N)[nH]c1=O` [Example 21, (2S)-2-((5-[2-(2,4-diamino-6-oxo-1,6-dihydropyrimidin-5-yl)acetamido]-6-ethenylpyridin-2-yl)formamido)pentanedioic acid], the EC50 in the assay on HL-60 cells came to 8620 nM. Further, half-maximal inhibition against MTHFD2 (IC50) required 298 nM.

As for `CC(C)[C@H](NC(=O)c1ccc(NC(=O)Cc2c(N)nc(N)[nH]c2=O)cn1)C(=O)O` [Example 13, (2S)-2-({5-[2-(2,4-diamino-6-oxo-1,6-dihydropyrimidin-5-yl)acetamido]pyridin-2-yl}formamido)-3-methylbutanoic acid], the EC50 in the assay with HL-60 cells is 215 nM. The compound further displayed an IC50 on MTHFD2 of 103 nM.

`Nc1nc(N)c(CC(=O)Nc2ccc(C(=O)N[C@@H](CCC(=O)O)C(=O)O)nc2-c2ccccc2)c(=O)[nH]1` [Example 27, (2S)-2-((5-[2-(2,4-diamino-6-oxo-1,6-dihydropyrimidin-5-yl)acetamido]-6-phenylpyridin-2-yl)formamido)pentanedioic acid]: in the assay on HL-60 cells, the EC50 turned out to be 2770 nM. Besides, at MTHFD2, the IC50 is 65 nM.

`Nc1nc(N)c(NC(=O)Nc2ccc(C(=O)N[C@@H](CCC(=O)N[C@@H](CCC(=O)O)C(=O)O)C(=O)O)nc2)c(=O)[nH]1` [Example 23, (2S)-2-[(4S)-4-carboxy-4-[(5-{[(2,4-diamino-6-oxo-1,6-dihydropyrimidin-5-yl)carbamoyl]amino}pyridin-2-yl)formamido]butanamido]pentanedioic acid]: the EC50 in the assay with HL-60 cells is 835 nM. The compound also gave an IC50 against MTHFD2 of 43 nM.

For the compound `CC(C)[C@H](NC(=O)c1ccc(NC(=O)Nc2c(N)nc(N)[nH]c2=O)cn1)C(=O)O` [Example 3, (2S)-2-[(5-{[(2,4-diamino-6-oxo-1,6-dihydropyrimidin-5-yl)carbamoyl]amino}pyridin-2-yl)formamido]-3-methylbutanoic acid; trifluoroacetic acid], the EC50 with HL-60 cells worked out at 31 nM. On MTHFD2, this compound yielded an IC50 of 19 nM.

On to `Nc1nc(N)c(NC(=O)Nc2ccc(C(=O)N[C@@H](CCCC(=O)O)C(=O)O)nc2)c(=O)[nH]1` [Example 17, (2S)-2-[(5-{[(2,4-diamino-6-oxo-1,6-dihydropyrimidin-5-yl)carbamoyl]amino}pyridin-2-yl)formamido]hexanedioic acid], for which the EC50 in the assay with HL-60 cells was 200 nM. This compound also gave an IC50 against MTHFD2 of 32 nM.
